Assay results published in US7968518B2, “Use of modified cyclosporins for the treatment of HCV disorders” (Novartis AG, priority 2003, dated 2011).

Experiments:
[1] = test system: HCV in PH5CH8 cells (non-neoplastic hepatocyte cell line); test: In vitro HCV infection experiment in PH5CH8 cells, real time RT-PCR; format: cell-based, Hepatitis C virus (HCV); settings: PH5CH8 cells treated with HCV-positive plasma, continuous treatment; untreated cells about 10-fold increase
Protocol: (§1) Cell culture: Huh-7 and MH-14 cells, HCV replicon cells, are cultured in Dulbecco's modified Eagle's medium (DMEM) with 10% fetal bovine serum (FBS). PH5CH8 cells are cultured in a 1:1 mixture of DMEM and F12 medium supplemented with 100 ng/ml of epidermal growth factor, 10 μu/ml of insulin, 0.36 μg/ml of hydrocortisone, 5 μg/ml of transferrin, 5 μg/ml of linoleic acid, 20 ng/ml of selenium, 4 μg/ml of glucagon, 10 ng/ml of prolactin, 10 μg/ml of gentamicin, 200 μg/ml of kanamycin, and 2% FBS.
(§2) The forward and reverse primers used in this experiment are 5′-[…]-3′ and 5′-[…]-3′, respectively. The fluorogenic probe is 5′-[…]-3′. As an internal control, ribosomal RNA is also quantified using TaqMan Ribosomal RNA Control Reagents (Applied Biosystems).

[2] = test system: HCV subgenomic replicon in MH-14 cells; test: Immunoblot analysis of HCV NS5A and NS5B proteins in MH-14 HCV replicon cells; format: cell-based, Hepatitis C virus (HCV); settings: 7 days
Protocol: as §1
Immunoblot analysis: Immunoblot analysis is performed as described by K. Watashi et al., Virology 2001, 286, 391-402. The primary antibodies used in this experiment are anti-NS5A, anti-NS5B, and anti-β-actin (Sigma) antibodies.
The effect of various cyclosporins of the invention on the replication of the HCV genome using MH-14 cells, in which the HCV subgenomic replicon as shown in FIG. 1A is autonomously replicated.

[3] = test system: HCV subgenomic replicon in MH-14 cells; settings: 7th day of treatment
Protocol: as §1, §2
(§3) Replicon RNA is analyzed in MH-14 cells treated with or without a cyclosporin of the invention or IFNα for 7 days by northern blot analysis.

[4] = test system: HCV subgenomic replicon in MH-14 cells; test: Northern blot analysis of replicon RNA in MH-14 cells; format: cell-based, Hepatitis C virus (HCV); settings: 1 μg/ml, 7 days
Protocol: as §1
Northern Blot Analysis: Nothern blot analysis is performed as described by H. Kishine et al., Biochem. Biophys. Res. Commun., 2002, 47, 119-125. The probe complementary to the NS5B sequence used in this experiment is described by H. Kishine, supra.
as §3

Row | Substance | increase of HCV RNA genome titer, 5th day vs 1st day post-inoculation [1] | amount of HCV NS5A and NS5B proteins by immunoblot analysis ([2]; 100 U/ml, positive control) | level of HCV RNA relative to the original [3] | amount of replicon RNA by northern blot [4] | amount of HCV NS5A and NS5B proteins by immunoblot analysis ([2]; 1 μg/ml)
1 | IFNα | significant increase of the HCV RNA genome titer at these time points was not observed | undetectable |  |  | 
2 | [MeIle]^4-Ciclosporin | significant increase of the HCV RNA genome titer at these time points was not observed |  | about 1/400 | undetectable | undetectable
